US20080071005A1, “Environment-Friendly Pollution-Proof Agent” (priority 2004, published 2008)
Like-named read-outs stand apart in the source and are kept apart here.

Experiments:
[1] = test system: spores of Enteromorpha prolifera and Ulva pertusa; test: prevention of the attachment of fouling algae (summary)
Experimental: The effect of the extracts on the prevention of the attachment of fouling algae was tested using the spores of Enteromorpha prolifera and Ulva pertusa, which are typical fouling algae.

mice = test: safety test, 10 mg/kg to mice, 7 days observation; format: in vivo; conditions: 10 mg/kg in DMSO/water, 10 mice per group, observed for 7 days
Aspergillus niger = test: minimum inhibitory concentration, two-fold serial dilution in nutrient broth; format: cell-based; conditions: 30° C., 48 hours
Text: (§1) A liquid medium obtained by diluting PAGS by two-fold serial dilution was placed on a 96-multiwell plate and inoculated with 10^4 cfu/ml of microorganisms. […] The liquid medium used in the test was a nutrient broth (Difco).

Staphylococcus aureus = test: as above; format: cell-based; conditions: 30° C., 48 hours
Text: as §1

[2] = safety test, oral and transdermal toxicity in rabbits; conditions: rabbit, in vivo
Enteromorpha spores = test: inhibitory activity test against the mobility of Enteromorpha spores; format: cell-based; conditions: Brassica extracts and fractions, comparison within the set
Text: In order to investigate inhibitory substances against the mobility of Enteromorpha spores from extracts of Citrus sp., organic solvent fractions were made.
In order to investigate inhibitory substances against the mobility of Enteromorpha spores from extracts of brassica, organic solvent fractions were made.

Compound	antifouling activity [1]	death of the mice (mice)	other results
C=CC(=C)CCC=C(C)C [beta-myrcene]	excellent antifouling activity	no death	
CC(C)=CCC/C(C)=C/C=O	excellent antifouling activity		
C=CCc1ccc(O)c(OC)c1 [eugenol]	excellent antifouling activity	no death	
methyl caporate	excellent antifouling activity	no death	MIC Aspergillus niger 1:0 (Aspergillus niger; ratio 1:0): 10; MIC Aspergillus niger 3:1 (Aspergillus niger; ratio 3:1): 6; MIC Staphylococcus aureus 1:0 (Staphylococcus aureus; ratio 1:0): 4; MIC Staphylococcus aureus 3:1 (Staphylococcus aureus; ratio 3:1): 5
CCCCCCCCO (single isomer, unassigned) [1-octanol]	excellent antifouling activity	no death	
CCCCCCCCCCCCCCCCCCCC(=O)O [arachadic acid]	excellent antifouling activity	no death	
CCCCCCC(=O)OCC [ethyl heptanoate]	excellent antifouling activity	no death	
CC/C=C\CCOC(C)=O [cis-3-hexenyl acetate]	excellent antifouling activity		solubility in organic solvent (organic solvent): insoluble in organic solvent; solubility in water (water): insoluble in water; LD50 ([2]; oral, read-out: LD50 (oral)): > 5000 mg/kg; LD50 ([2]; topical or ocular, transdermal, read-out: LD50 (transdermal)): > 5000 mg/kg; inhibitory activity against the mobility of Enteromorpha spores, in words (Enteromorpha spores): most excellent inhibitory effect
C=CCN=C=S (single isomer, unassigned) [allyl isothiocyanate]	excellent antifouling activity	no death	
